O-mannosylglycan site occupancy data for one substance are collected here from PMC3648545, “A Phenylalanine to Serine Substitution within an O-Protein Mannosyltransferase Led to Strong Resistance to PMT-Inhibitors in Pichia pastoris” (PLoS ONE, 2013).

In this test the target is T1, Pmt2p (PpPmt2p) (Komagataella phaffii, UniProt F2QTJ8).
T1 construct: gene PMT2; full-length native integral ER membrane protein in intact cells (chromosomal PMT2); Pmt1p-Pmt2p heterodimer, other PMTs also present; with Dolichyl-phosphate-mannose--protein mannosyltransferase 1
T1 sequence (F2QTJ8 entry or part of it): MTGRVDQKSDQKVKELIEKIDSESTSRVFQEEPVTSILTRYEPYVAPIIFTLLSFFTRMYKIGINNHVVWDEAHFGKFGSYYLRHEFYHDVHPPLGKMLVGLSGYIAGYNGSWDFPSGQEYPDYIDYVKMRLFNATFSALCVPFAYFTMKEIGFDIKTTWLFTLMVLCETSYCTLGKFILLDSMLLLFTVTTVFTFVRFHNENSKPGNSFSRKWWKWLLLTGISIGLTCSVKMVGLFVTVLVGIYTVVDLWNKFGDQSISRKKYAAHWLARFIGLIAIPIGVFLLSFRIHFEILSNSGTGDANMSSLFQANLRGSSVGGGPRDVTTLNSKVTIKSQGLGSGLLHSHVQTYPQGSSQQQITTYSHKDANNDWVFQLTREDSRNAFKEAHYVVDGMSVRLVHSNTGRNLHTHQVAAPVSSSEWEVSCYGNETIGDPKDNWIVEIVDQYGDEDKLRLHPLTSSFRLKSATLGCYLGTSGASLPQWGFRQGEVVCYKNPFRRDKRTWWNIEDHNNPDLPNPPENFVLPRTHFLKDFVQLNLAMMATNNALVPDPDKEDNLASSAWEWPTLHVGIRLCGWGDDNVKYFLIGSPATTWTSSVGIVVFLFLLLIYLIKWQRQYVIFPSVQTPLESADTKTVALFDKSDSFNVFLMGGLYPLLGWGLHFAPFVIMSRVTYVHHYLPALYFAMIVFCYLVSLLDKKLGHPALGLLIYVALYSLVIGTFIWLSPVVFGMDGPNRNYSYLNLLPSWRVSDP
Put plainly: HPAEC-PAD of O-mannosylglycan site occupancy on mAb#[…] secreted by intact cells. It is filed as cell-based. The note with it: fed-batch fermentation, PMTi-4 8 µM (Figure 4 legend; Discussion prints 8 mM); read-out is total O-mannosylation by all PMTs, not isolated Pmt2p; direct binding not shown.

Take PMTi-4: the O-mannosylglycan site occupancy is 3.1 O-mannose chains per mAb H2L2 (56 without inhibitor).
